Source: patent US7491819B1 (priority 2004, dated 2009)
Read-outs that look alike come from different tables or passages of the source.

Key:
MT-2 cells = experiment: Cytotoxicity assay of the drug combinations, uninfected cells, MTS; format: cell-based; details: highest concentrations tested, five days
Description: (§1) Drug Susceptibility and Cytotoxicity Assays. For drug susceptibility assays, MT-2 cells were infected with HIV-1 303B (or NL36G), at an MOI of 0.001, and seeded into 96-well microtiter plates (2.5×10^5 cells/ml) containing serial dilutions of test compounds. […] Each drug ratio consisted of an array of 3-fold serial dilutions, and was performed with eight or more replicas on separate multi-well plates. HIV infected cells were incubated at 37° C. in 5% CO2, and on day five post-infection, the extent of virus replication was measured by determining cell viability using the CellTiter 96 Aqueous Non-Radioactive Cell Proliferation Assay (Promega). Maximal cell protection was typically seen in samples treated with the highest drug concentration. In the cell viability assay, the tetrazolium compound MTS (3-(4,5-dimethylthiazol-2-yl)-5-(3-carboxymethoxyphenyl)-2-4-sulphophenyl-2H-tetrazolium) is added to cells, whereby enzymes in metabolically active cells convert it into a colored formazan product, which is quantitated by reading absorbance at 490 nm. Cytotoxicity assays were performed in parallel with the combination experiments. Here, uninfected cells were exposed to the same drug combinations, and assayed after five days for cell viability using the MTS assay.

NL36G virus = tested on: NL36G virus
Description: Virus and cell lines. The T-cell line, MT-2, was obtained through the AIDS Research and Reference Reagent Program. MT-2 cells were sub-cultured twice a week in RPMI 1640 medium supplemented with 10% fetal bovine serum, 2 mM L-glutamine, and 10 mM HEPES buffer pH 7.5. The HIV-1303B virus is a molecular clone derived from the NL4-3 strain of HIV-1 that was obtained from the NIH AIDS Research and Reference Reagent Program. For combinations with enfuvirtide, the NL36G virus was used. […] Virus stocks were made by transfecting 293T cells with a proviral DNA clone using LipofectAMINE PLUS (Invitrogen), according to the manufacturer's instructions. Three days post-transfection, virus was harvested and passaged once in MT-2 cells before titration in MT-2 cells.
Chemicals. Example 19, atazanavir, didanosine, stavudine, efavirenz, and enfuvirtide (T-20) were synthesized by Bristol-Myers Squibb using published or known reactions. […] Tenofovir was tested as tenofovir disopoxil fumarate. Zidovudine and zalcitabine were purchased from Sigma, and emtricitabine from Moravek Biochemicals.
as §1, with “Maximal cell protection was typically seen in samples treated with the highest drug concentration. In the cell viability assay, the tetrazolium compound MTS (3-(4,5-dimethylthiazol-2-yl)-5-(3-carboxymethoxyphenyl)-2-4-sulphophenyl-2H-tetrazolium) is added to cells, whereby enzymes in metabolically active cells convert it into a colored formazan product, which is quantitated by reading absorbance at 490 nm.” left out
Analysis of Drug Combination Effects. For determination of combination index (CI) values, drugs were diluted in a fixed ratio and multiple ratios were analyzed. The drug serial dilutions spanned a range of concentrations near the EC50 value of each compound, so that equivalent antiviral activities could be compared. The normalized responses from each therapy are fit to the four-parameter logistic model with a common minimum and maximum across all therapies. Conceptually, this equation can be written as
In this equation, Fa stands for “fraction affected,” and represents the fraction of the viral load that has been inactivated. […] The EC50, represented by the Ci in the above equation, is the drug concentration that is expected to reduce the amount of virus by 50%, and the Bi are the parameters that reflects the slope of the concentration-response curve. For this assay, A is the bottom plateau common to all curves, D is the common top plateau, Bj is the “slope” parameter for the jth therapy, and Cj is the concentration that produces an effect equal to the average of A and D for the jth therapy. Therapies 1 and 2 correspond to mono therapies 1 and 2, respectively. Therapies 3, 4, and 5 correspond to the three combination therapies. EC50 values for each drug were determined from the single drug experiments, using the above equation. The equation was fit using a nonlinear regression routine (Proc Nlin) in PC SAS version 8.2 (SAS Institute Inc.).
To assess antiviral effects of different drug combination treatments, combination indices (CIs) were calculated according to Chou and Rideout. The combination index was computed as
In this equation [Dm]1 and [Dm]2 are the concentrations of drugs that would individually produce a specific level of effect, while [D]1 and [D]2 are the concentrations of drugs in combination that would produce the same level of effect.
Theoretically, additivity is implied if the CI is equal to one, synergy if the CI is less than one, and antagonism if the CI is greater than one.

[1] = in combination with Example 19, EC50 ratio 1:1 (molar 5:44)
[2] = in combination with Example 19, EC50 ratio 1:2.5 (molar 1:22)
[3] = in combination with Example 19, EC50 ratio 2.5:1 (molar 25:88)

Substance: enfuvirtide
- cytotoxicity of the drug combinations with Example 19 (MT-2 cells): No significant cytotoxicity
- overall antiviral effect of the two-drug combination with Example 19 (in words) (NL36G virus; classification from combination indices): synergistic
- Combination Indices at 50% HIV Inhibition (Confidence Interval) (NL36G virus; [1]): 0.68 (0.59, 0.77)
- Combination Indices at 75% HIV Inhibition (Confidence Interval) (NL36G virus; [1]): 0.59 (0.48, 0.70)
- Combination Indices at 90% HIV Inhibition (Confidence Interval) (NL36G virus; [1]): 0.52 (0.37, 0.67)
- Combination Indices at 50% HIV Inhibition (Confidence Interval) (NL36G virus; [2]): 0.75 (0.65, 0.85)
- Combination Indices at 75% HIV Inhibition (Confidence Interval) (NL36G virus; [2]): 0.60 (0.49, 0.70)
- Combination Indices at 90% HIV Inhibition (Confidence Interval) (NL36G virus; [2]): 0.48 (0.34, 0.61)
- Combination Indices at 50% HIV Inhibition (Confidence Interval) (NL36G virus; [3]): 0.76 (0.65, 0.86)
- Combination Indices at 75% HIV Inhibition (Confidence Interval) (NL36G virus; [3]): 0.73 (0.59, 0.86)
- Combination Indices at 90% HIV Inhibition (Confidence Interval) (NL36G virus; [3]): 0.71 (0.50, 0.92)
- EC50 (NL36G virus; single drug, MT-2 cells, MOI 0.001, day five, MTS cell viability): 0.061 µM
